Reference: the supplement of paper PMC11061612

Legend:
[1] = test system: BICR22 (Oral Cavity Carcinoma); experiment: Bliss excess, mean over the matrix (fraction); higher = more synergy
Method in brief: (§1)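 Cell lines in DMEM/F12 or RPMI with 10% FBS were plated in 1536-well plates, held 24 hours at 37°C, 5% CO2, then given two-drug dose matrices for 72 hours (DMSO typically 0.2%). Viability was read by CellTiter-Glo 2.0 luminescence and scaled as inhibition from 0 (vehicle wells) to 1 (blank wells). Combination Emax is the second-highest inhibition in the matrix; Bliss excess is observed combination effect minus expected EA + EB − EA·EB, EA and EB being single-agent effects.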

[2] = test system: CAPAN-2 (Pancreatic Carcinoma); experiment: as above
Method in brief: as §1

[3] = test system: CCK-81 (Colorectal Carcinoma); experiment: as above
Method in brief: as §1

[4] = test system: COLO-320-HSR (Colorectal Carcinoma); experiment: as above
Method in brief: as §1

[5] = test system: ECC10 (Gastric Carcinoma); experiment: as above
Method in brief: as §1

FU97 (Gastric Carcinoma) = experiment: as above
Method in brief: as §1

IGR-37 (Melanoma) = experiment: as above
Method in brief: as §1

[6] = test system: KARPAS-422 (B-Cell Non-Hodgkin's Lymphoma); experiment: as above
Method in brief: as §1

LN-405 (Glioblastoma) [7] = experiment: as above
Method in brief: as §1

[8] = test system: NCI-H1581 (Non-Small Cell Lung Carcinoma); experiment: as above
Method in brief: as §1

[9] = test system: NCI-H1666 (Lung Adenocarcinoma); experiment: as above
Method in brief: as §1

[10] = test system: NCI-H2066 (Squamous Cell Lung Carcinoma); experiment: as above
Method in brief: as §1

NCI-H2591 (Mesothelioma) = experiment: as above
Method in brief: as §1

[11] = test system: NCI-H64 (Small Cell Lung Carcinoma); experiment: as above
Method in brief: as §1

NY (Osteosarcoma) = experiment: as above
Method in brief: as §1

[12] = test system: PANC-10-05 (Pancreatic Carcinoma); experiment: as above
Method in brief: as §1

[13] = test system: TT (Thyroid Gland Carcinoma); experiment: as above
Method in brief: as §1

U-2-OS (Osteosarcoma) = experiment: as above
Method in brief: as §1

[14] = test system: VCaP (Prostate Carcinoma); experiment: as above
Method in brief: as §1

LN-405 (Glioblastoma) [15] = experiment: combination Emax (second highest fraction inhibited in the dose matrix, 72 h); higher = more inhibition; extreme values may be limits of the assay
Method in brief: as §1
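For Bliss excess, mean over the matrix in this document: after 72 h of two-drug dosing.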

**Q.** With `CS(=O)(=O)CCNCc1ccc(-c2ccc3ncnc(Nc4ccc(OCc5cccc(F)c5)c(Cl)c4)c3c2)o1` [Lapatinib] + NC1(c2ccc(-c3nc4ccn5c(=O)[nH]nc5c4cc3-c3ccccc3)cc2)CCC1 [MK-2206] (first compound max 10 µM, 7x7, partner max 10 µM) as the compound, how does the Bliss excess [1] read?
**A.** 0.0346

**Q.** What about the Bliss excess [2] of the same compound?
**A.** -0.0098

**Q.** What about the Bliss excess [3] of the same compound?
**A.** 0.0908

**Q.** And the Bliss excess [4]?
**A.** 0.0102

**Q.** And the Bliss excess [5]?
**A.** 0.0211

**Q.** What about the Bliss excess (FU97 (Gastric Carcinoma)) of the same compound?
**A.** 0.0294

**Q.** What about the Bliss excess (IGR-37 (Melanoma)) of the same compound?
**A.** 0.0428

**Q.** And the Bliss excess [6]?
**A.** -0.0122

**Q.** What about the Bliss excess (LN-405 (Glioblastoma) [7]) of the same compound?
**A.** -0.0277

**Q.** And the Bliss excess [8]?
**A.** -0.0046

**Q.** And the Bliss excess [9]?
**A.** -0.0093

**Q.** What about the Bliss excess [10] of the same compound?
**A.** 0.0521

**Q.** What about the Bliss excess (NCI-H2591 (Mesothelioma)) of the same compound?
**A.** -0.0408

**Q.** And the Bliss excess [11]?
**A.** 0.022

**Q.** What about the Bliss excess (NY (Osteosarcoma)) of the same compound?
**A.** 0.0087

**Q.** And the Bliss excess [12]?
**A.** -0.0218

**Q.** And the Bliss excess [13]?
**A.** -0.0043

**Q.** And the Bliss excess (U-2-OS (Osteosarcoma))?
**A.** -0.029

**Q.** What about the Bliss excess [14] of the same compound?
**A.** -0.0421

**Q.** What about the “combination Emax” value (LN-405 (Glioblastoma) [15]) of the same compound?
**A.** 0.789
